From US8846066B2, “Methods and related compositions for reduction of fat and skin tightening” (The Regents of the University of California, priority 2004, dated 2014)
Values joined by “and” are separate entries in the source; they are usually repeats but may differ in a detail not shown here. Identical values can stand only once.

Legend:
[1] = system: HaCaT cells; assay: Lactate dehydrogenase (LDH) release assay, cell lysis; format: cell-based, human; details: for LDH release (OD 490): 30 min at 37° C.
Procedure: Cell lysis in response to detergent treatment was determined in HaCaT cells incubated with the reagents at the indicated cell dilutions for 30 min at 37° C. Lysis in cultured cells was measured using a lactate dehydrogenase (LDH) assay and within tissue using calcein, a fluorescent marker retained in cells with intact cell membranes. The LDH assay measures the activity of LDH, which is a cytosolic enzyme released when cells are lysed. Lactate dehydrogenase release was measured by absorbance (at 490 nm) after a 1 hour incubation with the LDH assay as recommended by the manufacturer (CytoTox 96 Non-Radioactive Cytotoxicity Assay, Promega). All studies were performed in triplicate. LDH release is directly proportional to absorbance at 490 nm (OD 490).

[2] = system: Melanocytes (A375P melanoma cell line); assay: MTS survival of melanocytes after DC with or without 1% PC; format: cell-based; details: 30 min; for Melanocytes surviving in DC only: MTS OD 490 nm, single wells; for Average (DC only): mean MTS OD 490 nm
Procedure: (§1) Melanocytes in melanocyte media on a 96-well dish were differentiated at 37° C. in a humidified, 5% CO2 incubator for a week. Media was aspirated and washed with 1×PBS once. Cells were treated with different concentrations of DC (from 0 to 0.5%) with or without 1% PC in 1×PBS. Each treatment was done in triplicates (Table 4). The plates were incubated at 37° C. in a humidified, 5% CO2 incubator for 30 min. The incubated plates were aspirated and washed with 1×PBS.
(§2) 10 mL of MTS (3-(4,5-dimethyl-2-yl)-5-(3-carboxymethoxyphenyl)-2-(4-sulfophenyl)-2H-tetrazolium, inner salt) assay solution was prepared (mixed 40 uL MTS (Promega, Madison Wis.) per MeI 1×PBS). 100 ul of MTS solution was added to each well of the plates. The plates were incubated at 37° C. incubator (non-hunified) for 120 min. OD was taken with spectrophotometer at 490 nm.
(§3) FIG. 7 illustrates the survival of melanocytes in sodium deoxycholate solution and sodium deoxycholate with 1% phosphatidylcholine solution. A375P is a melanoma cell line (P represents poorly metastatic). On y-axis, 1 represents 100% survival when no DC is added. All % concentrations are w/v %. […] The addition of sodium deoxycholate with 1% phosphatidylcholine solution increases the LD50 by ˜5-6 fold.

[3] = system: primary adipocytes; assay: MTS survival of adipocytes after DC with or without 1% PC; format: cell-based, human; details: 30 min; for Adipocytes surviving in DC only: MTS OD 490 nm, single wells; for Average (DC only): mean MTS OD 490 nm
Procedure: as §1, with “Adipocytes” for “Melanocytes”, “adipocyte” for “melanocyte”, “5).” for “4).”
as §2, with “1 mL” for “MeI”, “(non-humidified)” for “(non-hunified)”
as §3, with “8” for “7”, “adipocytes” for “melanocytes”, “The adipocyte cells are primary (i.e., taken freshly from” for “A375P is”, “person) adipocytes, cultured in vitro to maturity before treatment with DC.” for “melanoma cell line (P represents poorly metastatic).”

[4] = system: WM266; assay: Killing by DC after pre-incubation with human lipoma fat, WM266; format: cell-based
Procedure: (§4) The experiment was performed on a series of immortalized melanocyte cell lines. Resected human lipomas were ground up, and DC-containing media was mixed with the human fat and agitated for 24 hours. The material was centrifuged to pellet insoluble contents. The supernatants were then added on top of cultured melanocytes. Control was the identical DC-containing media not exposed to the fat chunks. Also, fat alone (no media) was added as a control.

[5] = system: lipomas; assay: Human lipoma study with sodium deoxycholate (Example 10); format: in vivo
Procedure: Six patients having 12 lipomas were injected with sodium deoxycholate (DC) solutions over a period of six months. […] Measurements were made by physical measurements and ultrasound imaging.

[6] = system: immortalized melanocyte cell lines; assay: Killing by DC after pre-incubation with human lipoma fat, series of cell lines; format: cell-based; details: 0.1% DC pre-incubated with human lipoma fat
Procedure: as §4
But it is evident in this experiment that the presence of the fat limits the killing properties of DC, may be by direct inhibition (like PC) or by sequestration (i.e., into the fat pellet). This can further explain the observation that injection of DC into fat spares the surrounding tissues.

[7] = single wells, DC 0.1% media not exposed to fat
[8] = single wells, supernatant of DC 0.1% media agitated 24 hours with human lipoma fat
[9] = Lipoma 1, pre-treatment size 1 cm, 1 treatment
[10] = Lipoma 4, pre-treatment size 4 × 3.5 cm, 4 treatments
[11] = Lipoma 5, pre-treatment size 2 × 1.8 cm, 4 treatments
[12] = Lipoma 6, pre-treatment size 2.8 cm, 1 treatment
[13] = Lipoma 7, pre-treatment size 3 × 2 cm, 2 treatments
[14] = Lipoma 8, pre-treatment size 1 cm, 2 treatments
[15] = Lipoma 10, pre-treatment size 2 cm, 2 treatments
[16] = Lipoma 12, pre-treatment size 1 cm, 1 treatment

## C[C@H](CCC(=O)[O-])[C@H]1CC[C@H]2[C@@H]3CC[C@@H]4C[C@H](O)CC[C@]4(C)[C@H]3C[C@H](O)[C@]12C.[Na+] [DC, sodium deoxycholate]
[1]; 0.005% dilution
  LDH release (OD 490): minimal LDH release
[1]; 0.05% and 0.5%
  LDH release (OD 490): progressively more LDH released
[1]; cell culture
  cell lysis compared with PBF: less cell lysis
[1]; over the tested dilutions
  cell lysis (LDH release, FIG. 2b): concentration dependent increase in cell lysis
[2]; DC 0.001 (w/v %)
  Melanocytes surviving in DC only: 0.158 and 0.148 and 0.16
  Average (DC only): 0.1553
[2]; DC 0.005 (w/v %)
  Melanocytes surviving in DC only: 0.128 and 0.109 and 0.103
  Average (DC only): 0.1133
[2]; DC 0.01 (w/v %)
  Melanocytes surviving in DC only: 0.124 and 0.107 and 0.106
  Average (DC only): 0.1123
[2]; DC 0.05 (w/v %)
  Melanocytes surviving in DC only: 0.056 and 0.038 and 0.048
  Average (DC only): 0.04733
[2]; DC 0.1 (w/v %)
  Melanocytes surviving in DC only: 0.009 and 0.014 and 0.016
  Average (DC only): 0.013
[2]; DC 0.5 (w/v %)
  Average (DC only): 0.004
[2]; melanocyte cell line, w/v %
  LD50 (concentration at which 50% of the cells are dead): around 0.04%
[3]; DC 0.01 (w/v %)
  Adipocytes surviving in DC only: 0.067 and 0.133 and 0.13
  Average (DC only): 0.131
[3]; DC 0.05 (w/v %)
  Adipocytes surviving in DC only: 0.01 and 0.009 and 0.008
  Average (DC only): 0.09
[3]; DC 0.1 (w/v %)
  Adipocytes surviving in DC only: 0
  Average (DC only): 0
[3]; DC 0.5 (w/v %)
  Adipocytes surviving in DC only: 0
  Average (DC only): 0
[3]; adipocytes, w/v %
  LD50 (concentration at which 50% of the fat cells are dead): around 0.02%
[3]; DC 0.005 (w/v %)
  Average (DC only): 0.111
[4]; Control = 1.000, DC 0.1% media not exposed to fat
  Percentage, DC 0.1%: 0.113
[4]; Control = 1.000, DC 0.1% media pre-incubated with human lipoma fat
  Percentage, DC 0.1% + fat: 0.539
[4]; DC 0.1% media not exposed to fat
  Average, DC 0.1%: 0.063
[4]; [7]
  Actual, DC 0.1%: 0.07 and 0.061 and 0.058
  WM266 (readings), DC 0.1%: 0.07 and 0.061 and 0.058
[4]; [8]
  Actual, DC 0.1% + fat: 0.281 and 0.308 and 0.314
  WM266 (readings), DC 0.1% + fat: 0.281 and 0.308 and 0.314
[4]; supernatant of DC 0.1% media agitated 24 hours with human lipoma fat
  Average, DC 0.1% + fat: 0.301
[5]; [9]
  Change in volume (%): −100%
  Post-treatment size: 0
[5]; Lipoma 3, pre-treatment size 2 × 2.5 cm, 3 treatments
  Change in volume (%): 84%
[5]; [10]
  Change in volume (%): 84%
  Post-treatment size: 2
[5]; [11]
  Change in volume (%): 92%
  Post-treatment size: 1.3
[5]; [12]
  Change in volume (%): 99%
  Post-treatment size: 0.5
[5]; [13]
  Change in volume (%): 97%
  Post-treatment size: 0.8
[5]; [14]
  Change in volume (%): 100%
  Post-treatment size: 0
[5]; Lipoma 9, pre-treatment size 2 × 1 cm, 2 treatments
  Change in volume (%): 67%
[5]; [15]
  Change in volume (%): 73%
  Post-treatment size: 1.3
[5]; Lipoma 11, pre-treatment size 2 cm, 1 treatment
  Change in volume (%): 79%
[5]; [16]
  Change in volume (%): 50%
  Post-treatment size: 0.8
[5]; six patients, 12 lipomas, after at least one treatment, six months
  size of injected lipomas: reduced in size
[6]
  effect of pre-incubation with fat on killing: appears to reduce killing
